{
  "source": "paper PMC5786306",
  "about": "“An AKAP-Lbc-RhoA interaction inhibitor promotes the translocation of aquaporin-2 to the plasma membrane of renal collecting duct principal cells” (PLoS ONE, 2018)",
  "key": {"[1]": {"target": "T1, AKAP-Lbc/DHPH-induced RhoA activation (Homo sapiens, UniProt P61586)", "T1 construct": "AKAP-Lbc/DHPH (aa 1923–2336 of human AKAP-Lbc; NP_006729.4, NCBI); made in house; host or cells: E. coli Rosetta (DE3)", "T1 sequence (P61586 whole entry, the tested form may be a part)": "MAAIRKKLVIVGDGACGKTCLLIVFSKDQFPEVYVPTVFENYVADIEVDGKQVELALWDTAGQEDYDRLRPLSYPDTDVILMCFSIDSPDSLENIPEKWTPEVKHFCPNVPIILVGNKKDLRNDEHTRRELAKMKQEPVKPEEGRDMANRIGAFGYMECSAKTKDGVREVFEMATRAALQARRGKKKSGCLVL", "assay": "Guanine nucleotide exchange (GEF) assay with mant-GTP (screen and secondary assays)", "type": "biochemical", "description": "Fluorescence was recorded for 15 min in a 384-well plate in a microplate reader (Tecan, Safire; Durham, US) at 440 nm (360 nm excitation wavelength).\nFor all dispensing and washing steps an EL406 washer/dispenser combination (BioTek Instruments, Bad Friedrichshall, Germany) was used. The screen was performed in a 384-well plate format. […] Z score describes the distance of a sample signal to the mean of all other samples on the plate in units of standard deviation. […] Compound identity and purity of samples used in this secondary screen were validated by mass spectrometric analysis.\nThe DHPH domain of the RhoA-specific guanine nucleotide exchange factor (GEF) AKAP-Lbc and RhoA were generated as recombinant proteins. The DHPH domain-catalyzed exchange of GDP for the fluorescent mant-GTP was monitored at the emission wavelength of RhoA-bound mant-GTP at 440 nm. (B) The fluorescence signal intensity changes were determined for all samples including positive and negative controls and percent inhibitions calculated based on the controls."}, "[2]": {"tested_on": "Gα12- or Gαq-mediated RhoA activation in HEK293 cells", "assay": "Rhotekin pulldown of active RhoA in HEK293 cells", "type": "cell-based, human", "details": "50 μM", "experimental": "(A) Full length AKAP-Lbc (AKAP13) and the indicated GEFs were transiently expressed in HEK293 cells. […] (B) Scaff10 inhibits Gα12- but not Gαq-mediated RhoA activation. The indicated Gα12 and Gαq-mutants were transiently co-expressed with AKAP-Lbc and p63RhoGEF in HEK293 cells as indicated. The cells were left untreated or incubated with Scaff10 (50 μM). The fraction of active RhoA was determined using Rhotekin pulldown assays. Shown is one representative out of three experiments. All GEF constructs were in pCMV3a and Myc-tagged (30 ng per transfection). Expression of AKAP-Lbc, LARG and PDZ-RhoGEF is shown in Fig 7 of the main manuscript. […] Lower panel: Corresponding values of fluorescence to upper panel. […] Lower panel: Corresponding values of fluorescence to upper panel. (B) F norm = normalised fluorescence (fluoresence steady state/fluorescence initial state) indicated in ‰. […] The viability of the indicated cells was determined using a CellTiter-Glo®Luminescent Cell Viability Assay (Promega, Wisconsin, USA) according to the manufacturer's instructions. The assay is based on the quantification of ATP as an indicator of metabolically active cells. […] Viability was assessed after 1 and 24 h incubation with Scaff10-8 in the indicated concentrations. An equal volume of CellTiter-Glo Reagent was added, plates were shaken and luminescence monitored over time with the plates held at 22°C. […]"}, "[3]": {"tested_on": "IMCD, MCD4, HEK293, MCF7 and H9C2 cells", "assay": "MTS cytotoxicity assay", "type": "cell-based, rat, mouse, human", "details": "3–100 μM, 24–72 h", "experimental": "The potential cytotoxicity of Scaff10-8 on primary IMCD and several permanent cell lines (MCF7, H9C2, HEK293, MCD4) was assessed using the tetrazolium compound-based CellTiter 96 AQueous One Solution Cell Proliferation (3-(4,5-dimethylthiazol-2-yl)-5-(3-carboxymethoxyphenyl)-2-(4-sulfophenyl)-2H-tetrazolium) (MTS) assay according to the instructions of the manufacturer. In brief, the cells were seeded into 96 well plates (5,000 cells per well) and cultured in their appropriate medium Scaff10-8 (100 μM, 30 μm and 3 μm, 0.3% final DMSO concentration) were added, DMSO (0.3%) was included as a control. Staurosporine (1 μM) was included as a positive control. All conditions were tested in quadruplicate. At the indicated time points, the MTS reagent was added. Absorption was determined 4 h after addition of MTS reagent at 450 nm wavelength. The MST reagent absorbance at 450 nm is proportional to the amount of living cells. A blank measurement determined the medium absorption (background). Values were normalized to untreated cells after 24 h for each cell line.\nFig 6 Scaff10-8 is not cytotoxic. […] (B) Cytotoxicity was assessed after 24–72 h of incubation with Scaff10-8 (3, 30, 100 μM). […] Absorption was determined at 450 nm and was related to medium absorption (blank). […] Statistically significant differences were determined applying one-way ANOVA with posthoc Bonferroni. […]"}},
  "data": [
    {"smiles": "COc1ccc(-c2coc3cc4oc(=O)c(C)c(C)c4cc23)cc1", "note": "[Scaff10, 3-(4-Methoxyphenyl)-5,6-dimethyl-furo[3,2-g]chromen-7-one]", "values": [
      {"measurement": "IC50", "setting": "[1]", "result": 26, "unit": "µM"},
      {"measurement": "ResidualPercentActivity", "setting": "[1]; Suppl. Tab. 2, screening data", "result": -9.0, "unit": "%"},
      {"measurement": "z_score", "setting": "[1]; Suppl. Tab. 2, screening data", "result": -9.0},
      {"measurement": "RhoA activation by constitutively active G12 (G12QL) with AKAP-Lbc", "setting": "[2]", "result": "abolished this activation"},
      {"measurement": "RhoA activation through constitutively active Gq (GqRC)", "setting": "[2]", "result": "did not affect"}
    ]},
    {"smiles": "COc1ccc(-c2coc3cc4oc(=O)c(CCC(=O)O)c(C)c4cc23)cc1", "note": "[Scaff10-8, 3-[3-(4-Methoxyphenyl)-5-methyl-7-oxo-furo[3,2-g]chromen-6-yl] propanoic acid]", "values": [
      {"measurement": "viability of cells (MTS)", "setting": "[3]", "result": "did not influence the viability"}
    ]}
  ]
}
